Like-named read-outs stand apart in the source and are kept apart here.
How the values were obtained:
Uromyces appendiculatus = test: Example B: Uromyces test (beans) / preventive; format: in vivo; details: in vivo
Puccinia recondita = test: Example E: Puccinia test (wheat) / preventive; format: in vivo; details: in vivo
[1] = Determination of log P values by HPLC on a reverse phase column (C18), EEC-Directive 79/831 Annex V.A8 (Methods A, B, C); format: physicochemical; details: for chromatographic logP: reverse phase C18 HPLC column
Experimental: (§1) Note on the determination of the log P values and mass detection: The stated log P values were determined in accordance with EEC-Directive 79/831 Annex V.A8 by HPLC (High Performance Liquid Chromatography) on a reverse phase column (C18). Agilent 1100 LC system; 50*4.6 Zorbax Eclipse Plus C18 1.8 micron; eluent A: acetonitrile (0.1% formic acid); eluent B: water (0.09% formic acid); linear gradient from 10% acetonitrile to 95% acetonitrile in 4.25 mins, then 95% acetonitrile for a further 1.25 mins; oven temperature 55° C.; flow rate: 2.0 mL/min. The mass detection was effected with an Agilend MSD system.
as §1, with “HP1100;” for “Agilent 1100 LC system;”, “(0.08%” for “(0.09%”, “5%” for “10%”, “1.70 min,” for “4.25 mins,”, “1.00 min;” for “1.25 mins;”, “the Micronass ZQ2000 mass detector from Waters.” for “an Agilend MSD system.”
Note on the determination of the log P values and mass detection: The stated log P values were determined in accordance with EEC-Directive 79/831 Annex V.A8 by UPLC (Ultra Performance Liquid Chromatography) on a reverse phase column (C18). HP1100; 50*2.1 Zorbax Eclipse Plus C18 1.8 micron; eluent A: acetonitrile (0.09% formic acid); eluent B: water (0.1% formic acid); linear gradient from 10% A to 95% A in 3.25 min; oven temperature 40° C.; flow rate: 0.8 mL/min. The mass detection was effected with the LCT Premier or SQD mass detector from Waters.

Pyrenophora teres = test: Example D: Pyrenophora test (barley) / preventive; format: in vivo
Pyricularia oryzae = format: in vivo
[2] = Method B (HPLC, reverse phase C18)
[3] = pH 2.7, values in the synthesis examples, HPLC, reverse phase C18, read-out: log P (pH 2.7)
[4] = pH 2.3, intermediates of formula [II], HPLC, reverse phase C18, read-out: LogP (pH 2.3)
[5] = pH 2.3, intermediates of formula [IV] and [XXXVII], HPLC, reverse phase C18, read-out: LogP (pH 2.3)
[6] = pH 2.3, intermediates of formula [VI], HPLC, reverse phase C18, read-out: LogP (pH 2.3)

| Compound | chromatographic logP [1, 3] | chromatographic logP [1, 5] | other results |
| --- | --- | --- | --- |
| O=C(CCc1ccccc1)Nc1cc(-c2c(-c3ccccc3)nn3c2OCCC3)ccn1 [Example 15] | – | – | efficacy (Uromyces appendiculatus): 83%; efficacy (Puccinia recondita): 95%; LogP [1, 2]: 2.04; efficacy (Pyrenophora teres; in vivo): 95%; efficacy (Pyricularia oryzae; in vivo): 94% |
| O=C(CCc1ccccc1)Nc1cc(-c2c(-c3ccc(F)cc3F)nn3c2OCCC3)ccn1 [Example 44] | – | – | efficacy (Uromyces appendiculatus): 94%; efficacy (Puccinia recondita): 95%; LogP [1, 2]: 2.23; efficacy (Pyricularia oryzae; in vivo): 78% |
| CC(=O)Nc1cc(-c2c(-c3ccc(F)cc3)nn3c2NCCC3)ccn1 [Example 59, N-{4-[2-(4-Fluorophenyl)-4,5,6,7-tetrahydropyrazolo[1,5-a]pyrimidin-3-yl]pyridin-2-yl}acetamide] | 1.48 | – | chromatographic logP ([1]; Method C (HPLC, reverse phase C18), read-out: LogP): 1.48; efficacy (Pyrenophora teres; 500 ppm of active ingredient, barley, preventive spray, evaluated 7-9 days after inoculation): 80%; efficacy (Pyricularia oryzae; 500 ppm of active ingredient, rice, preventive spray, evaluated 7 days after inoculation): 70% |
| CC(=O)Nc1cc(-c2c(-c3ccsc3)nn3c2OC[Si](C)(C)C3)ccn1 [Example 96] | – | – | LogP ([1]; Method C (HPLC, reverse phase C18)): 1.62; efficacy (Pyrenophora teres; in vivo): 95%; efficacy (Pyricularia oryzae; in vivo): 70% |
| Nc1cc(-c2c(-c3ccccc3)nn3cccnc23)ccn1 [[II-a-1], 4-(2-Phenylpyrazolo[1,5-a]pyrimidin-3-yl)pyridin-2-amine] | 0.98 | – | chromatographic logP [1, 4]: 0.98 |
| Nc1cc(-c2c(-c3ccccc3)nn3c2NCCC3)ccn1 [[II-b-1], 4-(2-Phenyl-4,5,6,7-tetrahydropyrazolo[1,5-a]pyrimidin-3-yl)pyridin-2-amine] | 1.05 | – | chromatographic logP [1, 4]: 1.05 |
| CC1CCOc2c(B3OC(C)(C)C(C)(C)O3)c(-c3ccc(F)cc3)nn21 (stereo not drawn) [[III-1], 2-(4-fluorophenyl)-7-methyl-3-(4,4,5,5-tetramethyl-1,3,2-dioxaborolan-2-yl)-6,7-dihydro-5H-pyrazolo[5,1-b][1,3]oxazine] | 3.5 | – | – |
| Brc1c(-c2ccccc2)nn2c1OCCC2 [[IV-1], 3-bromo-2-phenyl-6,7-dihydro-5H-pyrazolo[5,1-b][1,3]oxazine] | 2.66 | 2.66 | – |
| Fc1ccc(-c2nn3c(c2Br)OCCC3)cc1 [[IV-2], 3-bromo-2-(4-fluorophenyl)-6,7-dihydro-5H-pyrazolo[5,1-b][1,3]oxazine] | 2.86 | 2.86 | – |
| Fc1ccc(-c2nn3c(c2Br)OCCC3)c(F)c1 [[IV-3], 3-bromo-2-(2,4-difluorophenyl)-6,7-dihydro-5H-pyrazolo[5,1-b][1,3]oxazine] | 2.7 | 2.7 | – |
| Fc1ccc(-c2nn3c(c2Br)OCC3)cc1 [[IV-4], 7-bromo-6-(4-fluorophenyl)-2,3-dihydropyrazolo[5,1-b][1,3]oxazole] | 2.69 | 2.69 | – |
| C[Si]1(C)COc2c(Br)c(-c3ccc(F)cc3)nn2C1 [[IV-5], 8-bromo-7-(4-fluorophenyl)-3,3-dimethyl-3,4-dihydro-2H-pyrazolo[5,1-b][1,3,5]oxazasiline] | 3.83 | 3.83 | – |
| CC1CCOc2c(Br)c(-c3ccc(F)cc3)nn21 (stereo not drawn) [[IV-6], 3-bromo-2-(4-fluorophenyl)-7-methyl-6,7-dihydro-5H-pyrazolo[5,1-b][1,3]oxazine] | 3.36 | 3.36 | – |
| Fc1ccc(-c2nn3c(c2Br)OCC(F)(F)C3)cc1 [[IV-7], 3-bromo-6,6-difluoro-2-(4-fluorophenyl)-6,7-dihydro-5H-pyrazolo[5,1-b][1,3]oxazine] | 3.3 | 3.3 | – |
| CC1Oc2c(Br)c(-c3ccc(F)cc3)nn2C1C (stereo not drawn) [[IV-8], 7-bromo-6-(4-fluorophenyl)-2,3-dimethyl-2,3-dihydropyrazolo[5,1-b][1,3]oxazole] | – | 3.39 | chromatographic logP ([1]; pH 2.7, major isomer of the diastereoisomer mixture, read-out: Log P (pH 2.7), major isomer): 3.39; chromatographic logP ([1]; pH 2.7, minor isomer of the diastereoisomer mixture, read-out: Log P (pH 2.7), minor isomer): 3.46 |
| CC1(C)COc2c(Br)c(-c3ccc(F)cc3)nn2C1 [[IV-10], 3-bromo-2-(4-fluorophenyl)-6,6-dimethyl-6,7-dihydro-5H-pyrazolo[5,1-b][1,3]oxazine] | 3.63 | 3.63 | – |
| CC1(C#N)COc2c(Br)c(-c3ccc(F)cc3)nn2C1 (stereo not drawn) [[IV-11], 3-bromo-2-(4-fluorophenyl)-6-methyl-6,7-dihydro-5H-pyrazolo[5,1-b][1,3]oxazine-6-carbonitrile] | 2.94 | 2.94 | – |
| C[Si]1(C)COc2c(Br)c(-c3cccs3)nn2C1 [[IV-12], 8-bromo-3,3-dimethyl-7-(2-thienyl)-3,4-dihydro-2H-pyrazolo[5,1-b][1,3,5]oxazasiline] | 3.58 | 3.58 | – |

| Compound | chromatographic logP [1, 3] | chromatographic logP [1, 5] | other results |
| --- | --- | --- | --- |
| Cc1coc2c(Br)c(-c3ccc(F)cc3)nn12 [[IV-a-1], 7-bromo-6-(4-fluorophenyl)-3-methylpyrazolo[5,1-b][1,3]oxazole] | 3.56 | 3.56 | – |
| CCc1coc2c(Br)c(-c3ccc(F)cc3)nn12 [[IV-a-2], 7-bromo-3-ethyl-6-(4-fluorophenyl)pyrazolo[5,1-b][1,3]oxazole] | 4.18 | 4.18 | – |
| Fc1ccc(-c2nn3ccoc3c2Br)cc1 [[IV-a-3], 7-bromo-6-(4-fluorophenyl)pyrazolo[5,1-b][1,3]oxazole] | 3.07 | 3.07 | – |
| Brc1c(-c2ccccc2)nn2ccoc12 [[IV-a-4], 7-bromo-6-phenylpyrazolo[5,1-b][1,3]oxazole] | 2.91 | 2.91 | – |
| c1ccc(-c2cc3n(n2)CCCO3)cc1 [[VI-1], 2-phenyl-6,7-dihydro-5H-pyrazolo[5,1-b][1,3]oxazine] | 2.04 | – | chromatographic logP [1, 6]: 2.04 |
| Fc1ccc(-c2cc3n(n2)CCCO3)cc1 [[VI-2], 2-(4-fluorophenyl)-6,7-dihydro-5H-pyrazolo[5,1-b][1,3]oxazine] | 2.18 | – | chromatographic logP [1, 6]: 2.18 |
| Fc1ccc(-c2cc3n(n2)CCCO3)c(F)c1 [[VI-3], 2-(2,4-difluorophenyl)-6,7-dihydro-5H-pyrazolo[5,1-b][1,3]oxazine] | 2.38 | – | chromatographic logP [1, 6]: 2.38 |
| CC1CCOc2cc(-c3ccc(F)cc3)nn21 (stereo not drawn) [[VI-4], 2-(4-fluorophenyl)-7-methyl-6,7-dihydro-5H-pyrazolo[5,1-b][1,3]oxazine] | 2.65 | – | chromatographic logP [1, 6]: 2.65 |
| C[Si]1(C)COc2cc(-c3ccc(F)cc3)nn2C1 [[VI-5], 7-(4-fluorophenyl)-3,3-dimethyl-3,4-dihydro-2H-pyrazolo[5,1-b][1,3,5]oxazasiline] | 3.11 | – | chromatographic logP [1, 6]: 3.11 |
| Fc1ccc(-c2cc3n(n2)CCS3)cc1 [[VI-6], 6-(4-fluorophenyl)-2,3-dihydropyrazolo[5,1-b][1,3]thiazole] | 2.53 | – | chromatographic logP [1, 6]: 2.53 |
| CC1(C)COc2cc(-c3ccc(F)cc3)nn2C1 [[VI-10], 2-(4-fluorophenyl)-6,6-dimethyl-6,7-dihydro-5H-pyrazolo[5,1-b][1,3]oxazine] | 2.96 | – | chromatographic logP [1, 6]: 2.96 |
| CC1(C#N)COc2cc(-c3ccc(F)cc3)nn2C1 (stereo not drawn) [[VI-11], 2-(4-fluorophenyl)-6-methyl-6,7-dihydro-5H-pyrazolo[5,1-b][1,3]oxazine-6-carbonitrile] | 2.39 | – | chromatographic logP [1, 6]: 2.39 |
| O=c1cc(-c2ccc(F)cc2)[nH][nH]1 [[VII-2], 3-(4-fluorophenyl)-1H-pyrazol-5-ol] | 1.11 | – | – |
| Oc1cc(-c2ccc(F)cc2F)n[nH]1 [[VII-3], 3-(2,4-difluorophenyl)-1H-pyrazol-5-ol] | 1.25 | – | – |
| Brc1c(-c2ccccc2)nn2cccnc12 [[XXXVII-1], 3-Bromo-2-phenylpyrazolo[1,5-a]pyrimidine] | 2.63 | 2.63 | – |
| Fc1ccc(-c2nn3cccnc3c2Br)cc1 [[XXXVII-2], 3-Bromo-2-(4-fluorophenyl)pyrazolo[1,5-a]pyrimidine] | 2.8 | 2.8 | – |
| Fc1ccc(-c2cc3ncccn3n2)cc1 [[XXXVIII-1], 2-(4-Fluorophenyl)pyrazolo[1,5-a]pyrimidine] | 2.17 | – | – |

From patent publication US9023844B2, “Heterocyclylpyri (mi) dinylpyrazole as fungicidals” (Bayer Intellectual Property GmbH, priority 2011, dated 2015)
